SMILES strings stand for the structures. pIC50: −log10 of the molar value.

The assay deals with T1, Recombinant human renin (Homo sapiens, UniProt P00797).
T1 construct: isolate the active form (residues 67-406); made in house; host or cells: FreeStyle 293-F cells (transient expression of pcDNA3.1(+)/hREN)
T1 sequence (P00797 67-406): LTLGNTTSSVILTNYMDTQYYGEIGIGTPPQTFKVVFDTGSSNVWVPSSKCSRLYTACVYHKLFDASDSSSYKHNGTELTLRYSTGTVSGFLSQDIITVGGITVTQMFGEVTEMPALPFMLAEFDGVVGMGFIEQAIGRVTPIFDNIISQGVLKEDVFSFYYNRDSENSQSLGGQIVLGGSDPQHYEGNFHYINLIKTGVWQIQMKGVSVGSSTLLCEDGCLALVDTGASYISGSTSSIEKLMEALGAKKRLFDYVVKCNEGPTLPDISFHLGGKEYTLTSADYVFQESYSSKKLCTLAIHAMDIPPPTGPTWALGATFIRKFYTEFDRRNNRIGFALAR
The assay can be described thus: In vitro enzymatic activity assay of Renin inhibitors (fluorescence, QXL520/HiLyteFluo488 peptide substrate). The assay is classed as biochemical. As to conditions: recombinant human renin 3 nM, 1 μM substrate, 37° C., pH 7.4; values given as ranges; read-out: IC50 of Exemplified Compounds Against Renin. The text has this: Test compounds in varying concentrations may be reacted with recombinant human renin in the presence of substrate, e.g., QXL520-γ-Abu-Ile-His-Pro-Phe-His-Leu-Val-Ile-His-Thr-Lys (HiLyteFluo488)-Arg-OH (Anaspec, San Jose, Calif.). The reaction can be followed kinetically using fluorescence (excitation λ=485 nm; emission λ=538 nm). Inhibition constants (IC50) may be calculated by non-linear curve fitting of the compound concentrations and fluorescence intensities to the standard IC50 equation.
Solutions of test compounds in varying concentrations (<2 mM final concentration) are prepared in dimethyl sulfoxide (DMSO) and then diluted into assay buffer comprising 50 mM Hepes, 1 mM EDTA, 1 mM DTT, 0.1 mg/ml BSA, 0.01% Brij35, pH 7.4. Alternatively, the assay can be performed with a high BSA concentration, wherein the buffer contains an additional 2% BSA.
Recombinant human renin (3 nM final concentration) is added to the dilutions and pre-incubated with the compounds for 10 minutes at 37° C. As described in Examples A-C above, human Renin can be obtained by expressing preprorenin (residue 1-406) in mammalian cells, treating the prorenin (residues 24-406) contained in the culture supernatant with trypsin, and isolate the active form (residues 67-406). After pre-incubation, the reaction is initiated with 1 μM of substrate QXL520-γ-Abu-Ile-His-Pro-Phe-His-Leu-Val-Ile-His-Thr-Lys (HiLyteFluo488)-Arg-OH (Anaspec, San Jose, Calif.). The final DMSO in the assay is 5%. The total volume of the reaction mixture is 20 μL, which can be placed on Greiner 384-well small volume plates.
Renin activity may be determined via fluorescence (excitation λ=485 nm; emission λ=538 nm), e.g., on a Molecular Devices SPECTROmax GEMINI XPS. The fluorescence intensity is determined upon the addition of substrate and determined again after incubation at 37° C. for one hour. The fluorescence intensity of a blank (no inhibition) using vehicle alone is also determined. Renin activity is linearly proportional to the change in fluorescence observed (final−initial).
The percent inhibition of Renin at a given compound concentration is defined as:
100%×[1−(Fcompound/Fblank)]
where Fcompound is the observed fluorescence at a given concentration of test compound and Fblank is the observed fluorescence in the presence of vehicle alone.
The pIC50 value (negative log of the molar concentration of the compound that produces 50% inhibition) of a test compound is calculated by non-linear least squares curve fitting of the equation: […]
to percent inhibition versus compound concentration. The 50% inhibitory concentration (IC50) of a test compound is calculated by raising 10 to the negative pIC50 (10^−pIC50).
Broadly, the pIC50 is the negative decadic logarithm of the IC50, by convention in mol/L. Take `CCNC(=O)c1cccc(Oc2ccccc2CCC(=O)N2CCNC[C@H]2Cc2ccccc2)c1` [Example 34, (R)-3-(2-(3-(2-Benzylpiperazin-1-yl)-3-oxopropyl)phenoxy)-N-ethylbenzamide]: the negative logarithm of the IC50 (pIC50) is 5.30 to 6.30. In the case of `O=C(CCc1ccccc1Oc1cccc(CO)c1)N1CCNC[C@H]1Cc1ccccc1` [Example 35, (R)-1-(2-Benzylpiperazin-1-yl)-3-(2-(3-(hydroxymethyl)phenoxy)phenyl)propan-1-one] it was 5.30 to 6.30. Next, `CC(=O)c1cccc(Oc2ccccc2CCC(=O)N2CCNC[C@H]2Cc2ccccc2)c1` [Example 36, (R)-3-(2-(3-Acetylphenoxy)phenyl)-1-(2-benzylpiperazin-1-yl)propan-1-one]: 5.30 to 6.30. For the molecule `NC(=O)c1cccc(Oc2ccccc2CCC(=O)N2CCNC[C@H]2Cc2ccccc2)c1` [Example 37, (R)-3-(2-(3-(2-benzylpiperazin-1-yl)-3-oxopropyl)phenoxy)benzamide], the pIC50 is 5.30 to 6.30. Take `CC(=O)NCc1cccnc1Oc1ccccc1CCC(=O)N1CCNC[C@H]1Cc1ccccc1` [Example 38, (R)—N-((2-(2-(3-(2-benzylpiperazin-1-yl)-3-oxopropyl)phenoxy)-pyridin-3-yl)methyl)acetamide]: the pIC50 was 5.30 to 6.30.

Regarding `CC(=O)NCc1c(C)cc(C)nc1Oc1ccccc1CCC(=O)N1CCNC[C@H]1Cc1ccccc1` [Example 39, (R)—N-((2-(2-(3-(2-benzylpiperazin-1-yl)-3-oxopropyl)phenoxy)-4,6-dimethylpyridin-3-yl)methyl)acetamide], the pIC50 was more than 6.30. In the case of `CC(=O)NCc1cc(C)ccc1Oc1ccccc1CCC(=O)N1CCNC[C@H]1Cc1ccccc1` [Example 40, (R)—N-(2-(2-(3-(2-benzylpiperazin-1-yl)-3-oxopropyl)phenoxy)-5-methylbenzyl)acetamide] it was more than 6.30; in that of `COc1ccc(Oc2ccccc2CCC(=O)N2CCNC[C@H]2Cc2ccccc2)c(CNC(C)=O)c1` [Example 41, (R)—N-(2-(2-(3-(2-benzylpiperazin-1-yl)-3-oxopropyl)phenoxy)-5-methoxybenzyl)acetamide], more than 6.30; in that of `CC(=O)NCc1ccc(C)nc1Oc1ccc(C)cc1CCC(=O)N1CCNC[C@H]1Cc1ccccc1` [Example 42, (R)—N-((2-(2-(3-(2-benzylpiperazin-1-yl)-3-oxopropyl)-4-methylphenoxy)-6-methylpyridin-3-yl)methyl)acetamide], 5.30 to 6.30. Regarding `CC(=O)NCc1cc(C)ccc1Oc1ccc(C)cc1CCC(=O)N1CCNC[C@H]1Cc1ccccc1` [Example 43, (R)—N-(2-(2-(3-(2-benzylpiperazin-1-yl)-3-oxopropyl)-4-methylphenoxy)-5-methylbenzyl)acetamide], the pIC50 is more than 6.30. Next, `CC(=O)NCc1ccc(C)nc1Oc1cc(C)ccc1CCC(=O)N1CCNC[C@H]1Cc1ccccc1` [Example 44, (R)—N-((2-(2-(3-(2-benzylpiperazin-1-yl)-3-oxopropyl)-5-methylphenoxy)-6-methylpyridin-3-yl)methyl)acetamide]: 5.30 to 6.30. In the case of `CC(=O)NCc1cc(C(F)(F)F)ccc1Oc1cc(C)ccc1CCC(=O)N1CCNC[C@H]1Cc1ccccc1` [Example 45, (R)—N-(2-(2-(3-(2-benzylpiperazin-1-yl)-3-oxopropyl)-5-methylphenoxy)-5-(trifluoromethyl)benzyl)acetamide] it was 5.30 to 6.30; in that of `CC(=O)NCc1cc(C)ccc1Oc1cc(C)ccc1CCC(=O)N1CCNC[C@H]1Cc1ccccc1` [Example 46, (R)—N-(2-(2-(3-(2-benzylpiperazin-1-yl)-3-oxopropyl)-5-methylphenoxy)-5-methylbenzyl)acetamide], more than 6.30; in that of `CC(=O)NCc1cc(C(F)(F)F)ccc1Oc1ccc(C)cc1CCC(=O)N1CCNC[C@H]1Cc1ccccc1` [Example 47, (R)—N-(2-(2-(3-(2-benzylpiperazin-1-yl)-3-oxopropyl)-4-methylphenoxy)-5-(trifluoromethyl)benzyl)acetamide], 5.30 to 6.30.

These data come from patent US20100210635A1, “RENIN INHIBITORS” (Takeda Pharmaceutical Company Limited, priority 2006, published 2010).
